Reference: US9980943B2, “Methods of treating muscular dystrophy” (BOARD OF REGENTS OF THE NEVADA SYSTEM OF HIGHER EDUCATION, …, priority 2013, dated 2018)

Key:
Format in all cases: cell-based, mouse
[1] = system: α7 integrin (LacZ reporter in α7βgal+/− myoblasts); experiment: Myoblast α7+/LacZ integrin FDG assay (Burkin assay in myoblasts, 96-well); settings: for Burkin Assay in Myoblasts, value relative to DMSO / Burkin Assay in Myoblasts, signal relative to DMSO: α7+/LacZ myoblasts, 96-well
[2] = system: α7 integrin (LacZ reporter in α7+/LacZ myotubes); experiment: Myotube α7 integrin FDG assay (Burkin assay in myotubes, 96-well)
[3] = system: β-galactosidase in CMV-LacZ C2C12 myotubes; experiment: CMV-LacZ secondary screen in C2C12 myotubes (β-Gal stabilizing assay); settings: for CMV-LACZ in Myotubes (β-galactosidase activity relative to DMSO): CMV-LacZ C2C12 myotubes, 96-well format
In short: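 CMV-LacZ C2C12 line (clonal, FDG-screened); myoblasts/myotubes dosed 0.5–40 μM (0.5, 1, 5, 10, 20, 40 μM); n=2 per point; β-gal stabilization read-out.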

[4] = Mus musculus, Myoblast, 48 h, read-out: Burkin Assay in Myoblasts, signal relative to DMSO
[5] = Mus musculus, Myotube, read-out: Burkin Assay in Myotubes, α7 integrin LacZ reporter signal relative to DMSO

SMILES | Burkin Assay in Myoblasts, value relative to DMSO ([1]; 0.5 uM) | Burkin Assay in Myoblasts, value relative to DMSO ([1]; 1 uM) | Burkin Assay in Myoblasts, value relative to DMSO ([1]; 5 uM) | Burkin Assay in Myoblasts, value relative to DMSO ([1]; 10 uM) | Burkin Assay in Myoblasts, value relative to DMSO ([1]; 20 uM) | Burkin Assay in Myoblasts, value relative to DMSO ([1]; 40 uM) | Burkin Assay in Myotubes (signal relative to DMSO) ([2]; 0.5 uM) | Burkin Assay in Myotubes (signal relative to DMSO) ([2]; 1 uM) | Burkin Assay in Myotubes (signal relative to DMSO) ([2]; 5 uM) | Burkin Assay in Myotubes (signal relative to DMSO) ([2]; 10 uM) | Burkin Assay in Myotubes (signal relative to DMSO) ([2]; 20 uM) | Burkin Assay in Myotubes (signal relative to DMSO) ([2]; 40 uM) | CMV-LACZ in Myotubes (β-galactosidase activity relative to DMSO) ([3]; 5 uM) | CMV-LACZ in Myotubes (β-galactosidase activity relative to DMSO) ([3]; 10 uM) | CMV-LACZ in Myotubes (β-galactosidase activity relative to DMSO) ([3]; 20 uM) | CMV-LACZ in Myotubes (β-galactosidase activity relative to DMSO) ([3]; 40 uM) | other results
NS(=O)(=O)c1ccc(NC(=O)c2cc(-c3ccccc3O)n[nH]2)cc1 [MLS001214443-01] | 0.9203 | 0.8074 | 0.7787 | 0.8173 | 0.9132 | 0.9313 | 0.8262 | 0.9018 | 0.9442 | 1.193 | 1.154 | 1.083 | 0.9737 | 1.072 | 0.9507 | 0.9022 | 
CCCOc1nc(SCCC)nc2c1cnn2-c1ccccc1 [MLS000737953-01] |  |  |  |  |  |  |  |  |  |  |  |  |  |  |  |  | Burkin Assay in Myoblasts, signal relative to DMSO ([1]; 0.5 uM): 0.9; Burkin Assay in Myoblasts, signal relative to DMSO ([1]; 1 uM): 0.9673; Burkin Assay in Myoblasts, signal relative to DMSO ([1]; 5 uM): 1.003; Burkin Assay in Myoblasts, signal relative to DMSO ([1]; 10 uM): 1.08; Burkin Assay in Myoblasts, signal relative to DMSO ([1]; 20 uM): 1.149; Burkin Assay in Myoblasts, signal relative to DMSO ([1]; 40 uM): 1.233; Burkin Assay in Myotubes, α7 integrin LacZ reporter signal relative to DMSO ([2]; 0.5 uM): 0.9665; Burkin Assay in Myotubes, α7 integrin LacZ reporter signal relative to DMSO ([2]; 1 uM): 1.135; Burkin Assay in Myotubes, α7 integrin LacZ reporter signal relative to DMSO ([2]; 5 uM): 1.241; Burkin Assay in Myotubes, α7 integrin LacZ reporter signal relative to DMSO ([2]; 10 uM): 1.226; Burkin Assay in Myotubes, α7 integrin LacZ reporter signal relative to DMSO ([2]; 20 uM): 1.007; Burkin Assay in Myotubes, α7 integrin LacZ reporter signal relative to DMSO ([2]; 40 uM): 0.5339; CMV-LACZ in Myotubes, signal relative to DMSO ([3]; 5 uM, C2C12 CMV-LacZ myotubes, fold relative to DMSO): 0.8274; CMV-LACZ in Myotubes, signal relative to DMSO ([3]; 10 uM, C2C12 CMV-LacZ myotubes, fold relative to DMSO): 1.224; CMV-LACZ in Myotubes, signal relative to DMSO ([3]; 20 uM, C2C12 CMV-LacZ myotubes, fold relative to DMSO): 0.9478; CMV-LACZ in Myotubes, signal relative to DMSO ([3]; 40 uM, C2C12 CMV-LacZ myotubes, fold relative to DMSO): 0.9096
COCc1c(C(=O)OCc2nc3ccsc3c(=O)[nH]2)oc2ccccc12 [MLS002163386-01] | 1.0508 | 0.9023 | 1.034 | 0.888 | 1.014 | 0.9388 | 1.104 | 1.048 | 1.112 | 1.064 | 1.064 | 1.02 | 0.9749 | 1.196 | 0.9465 | 1.066 | 
Cc1nc2c([nH]1)OC(N)=C(C#N)C21CCN(Cc2ccccc2)CC1 [MLS000047918-01] |  |  |  |  |  |  |  |  |  |  |  |  |  |  |  |  | fold induction at 0.5 µM [1, 4]: 0.873; fold induction at 1 µM [1, 4]: 0.912; fold induction at 5 µM [1, 4]: 0.948; fold induction at 10 µM [1, 4]: 1; fold induction at 20 µM [1, 4]: 0.803; fold induction at 40 µM [1, 4]: 0.78; fold induction at 0.5 µM [2, 5]: 1.4; fold induction at 1 µM [2, 5]: 0.913; fold induction at 5 µM [2, 5]: 0.899; fold induction at 10 µM [2, 5]: 0.872; fold induction at 20 µM [2, 5]: 0.967; fold induction at 40 µM [2, 5]: 0.945; fold induction at 5 µM ([3]; Mus musculus, C2C12, read-out: CMV-LACZ in Myotubes, signal relative to DMSO, 5 uM, C2C12 CMV-LacZ myotubes, fold relative to DMSO): 0.937; fold induction at 10 µM ([3]; Mus musculus, C2C12, read-out: CMV-LACZ in Myotubes, signal relative to DMSO, 10 uM, C2C12 CMV-LacZ myotubes, fold relative to DMSO): 0.8; fold induction at 20 µM ([3]; Mus musculus, C2C12, read-out: CMV-LACZ in Myotubes, signal relative to DMSO, 20 uM, C2C12 CMV-LacZ myotubes, fold relative to DMSO): 1.04; fold induction at 40 µM ([3]; Mus musculus, C2C12, read-out: CMV-LACZ in Myotubes, signal relative to DMSO, 40 uM, C2C12 CMV-LacZ myotubes, fold relative to DMSO): 1.05
Cc1ccc(-c2csc(Nc3ccc(C(=O)O)cc3)[n+]2Cc2ccccc2)cc1 [MLS000374261-01] | 0.7676 | 0.7758 | 0.7248 | 0.7138 | 0.8376 | 0.8321 | 0.8144 | 0.8386 | 1.131 | 0.9288 | 0.423 | 0.449 | 0.8246 | 0.8319 | 0.448 | 0.5036 | 
COc1ccc(-n2c(SCC(=O)Nc3cccc(C(=O)O)c3)nnc2-c2ccco2)cc1 [MLS001215742-01] | 0.887 | 0.926 | 1.04 | 1.105 | 0.7682 | 0.8165 | 1.02 | 1.104 | 0.9803 | 1.155 | 0.8384 | 0.9687 | 1.026 | 1.1034 | 0.9254 | 0.9851 | 
